Patent publication US9556205B2, “Fungicide N-[(trisubstitutedsilyl)methyl]-carboxamide derivatives” (BAYER INTELLECTUAL PROPERTY GMBH, priority 2010, dated 2017)
Values joined by “and” are separate entries in the source; they are usually repeats but may differ in a detail not shown here. Equal entries are not always repeated.

Tests used:
[1] = test system: Aflatoxins production by Aspergillus parasiticus; format: cell-based
[2] = log P by HPLC on reversed-phase column (C18), EEC Directive 79/831 Annex V.A8; format: physicochemical; settings: 40° C., 0.1% aqueous formic acid and acetonitrile, linear gradient 10% to 90% acetonitrile
Method: In table 1, the log P values were determined in accordance with EEC Directive 79/831 Annex V.A8 by HPLC (High Performance Liquid Chromatography) on a reversed-phase column (C18), using the method described below:
Temperature: 40° C.; Mobile phases: 0.1% aqueous formic acid and acetonitrile; linear gradient from 10% acetonitrile to 90% acetonitrile.
Calibration was carried out using unbranched alkan-2-ones (comprising 3 to 16 carbon atoms) with known log P values (determination of the log P values by the retention times using linear interpolation between two successive alkanones). lambda-max-values were determined using UV-spectra from 200 nm to 400 nm and the peak values of the chromatographic signals.

Alternaria solani = assay: In vivo preventive test on Alternaria solani (tomato); settings: 500 ppm of active ingredient, evaluated 7 days after inoculation
Method: Solvent: 49 parts by weight of N,N-dimethylformamide Emulsifier: 1 part by weight of Alkylarylpolyglycolether To produce a suitable preparation of active compound, 1 part by weight of active compound is mixed with the stated amounts of solvent and emulsifier, and the concentrate is diluted with water to the desired concentration. To test for preventive activity, young plants are sprayed with the preparation of active compound at the stated rate of application. One day after this treatment, the plants are inoculated with an aqueous spore suspension of Alternaria solani. […] Then the plants are placed in an incubation cabinet at approximately 20° C. and a relative atmospheric humidity of 96%.

Leptosphaeria nodorum = assay: In vivo preventive test on Leptosphaeria nodorum (wheat); settings: 500 ppm of active ingredient, evaluated 8 days after inoculation
Method: Solvent: 49 parts by weight of N,N-dimethylacetamide Emulsifier: 1 part by weight of alkylaryl polyglycol ether To produce a suitable preparation of active compound, 1 part by weight of active compound or the compound combination is mixed with the stated amounts of solvent and emulsifier, and the concentrate is diluted with water to the desired concentration. To test for protective activity, young plants are sprayed with a preparation of active compound or active compound combination at the stated rate of application. After the spray coating has dried on, the plants are sprayed with a spore suspension of Leptosphaeria nodorum. […] The plants are placed in a greenhouse at a temperature of approximately 15° C. and a relative atmospheric humidity of approximately 80%.

Pyrenophora teres = assay: In vivo preventive test on Pyrenophora teres (barley), Example F; settings: 500 ppm of active ingredient, evaluated 7-9 days after inoculation
Method: Solvent: 49 parts by weight of N,N-dimethylformamide Emulsifier: 1 part by weight of alkylaryl polyglycol ether To produce a suitable preparation of active compound, 1 part by weight of active compound is mixed with the stated amounts of solvent and emulsifier, and the concentrate is diluted with water to the desired concentration. To test for preventive activity, young plants are sprayed with the preparation of active compound at the stated rate of application. One day after this treatment, the plants are inoculated with an aqueous spore suspension of Pyrenophora teres. […] Then the plants are placed in a greenhouse at a temperature of approximately 20° C. and a relative atmospheric humidity of approximately 80%.

Aspergillus parasiticus = format: cell-based; settings: 7 days at 20° C., OD620nm
Septoria tritici = assay: In vivo preventive test on Septoria tritici (wheat); settings: 500 ppm of active ingredient, evaluated 21 days after inoculation
Method: Solvent: 49 parts by weight of N,N-dimethylacetamide Emulsifier: 1 part by weight of alkylaryl polyglycol ether To produce a suitable preparation of active compound, 1 part by weight of active compound or active compound combination is mixed with the stated amounts of solvent and emulsifier, and the concentrate is diluted with water to the desired concentration. To test for preventive activity, young plants are sprayed with the preparation of active compound or active compound combination at the stated rate of application. After the spray coating has dried on, the plants are sprayed with a spore suspension of Septoria tritici. […] The plants are placed in a greenhouse at a temperature of approximately 15° C. and a relative atmospheric humidity of approximately 80%.

Venturia inaequalis = assay: In vivo preventive test on Venturia inaequalis (apple scab); settings: 100 ppm of active ingredient, evaluated 10 days after inoculation
Method: Solvent: 24.5 parts by weight of acetone • 24.5 parts by weight of N,N-dimethylacetamide Emulsifier: 1 part by weight of alkylaryl polyglycol ether To produce a suitable preparation of active compound, 1 part by weight of active compound is mixed with the stated amounts of solvent and emulsifier, and the concentrate is diluted with water to the desired concentration. To test for protective activity, young plants are sprayed with the preparation of active compound at the stated rate of application. […] The plants are then placed in a greenhouse at approximately 21° C. and a relative atmospheric humidity of approximately 90%.

Botrytis cinerea = assay: In vivo preventive test on Botrytis cinerea (beans); settings: 500 ppm of active ingredient, lesion size 2 days after inoculation
Method: Solvent: 24.5 parts by weight of acetone
• 24.5 parts by weight of N,N-dimethylacetamide Emulsifier: 1 part by weight of alkylaryl polyglycol ether
To produce a suitable preparation of active compound, 1 part by weight of active compound is mixed with the stated amounts of solvent and emulsifier, and the concentrate is diluted with water to the desired concentration.
To test for protective activity, young plants are sprayed with the preparation of active compound. After the spray coating has dried on, 2 small pieces of agar covered with growth of Botrytis cinerea are placed on each leaf. The inoculated plants are placed in a darkened chamber at 20° C. and a relative atmospheric humidity of 100%.
2 days after the inoculation, the size of the lesions on the leaves is evaluated. 0% means an efficacy which corresponds to that of the control, while an efficacy of 100% means that no disease is observed. Under these conditions, excellent (at least 95%) to total protection is observed at a dose of 500 ppm of active ingredient with the following compounds from table C: […]

For CN(C[Si](C)(C)c1ccccc1)C(=O)c1c(C(F)F)nn(C)c1F [Example 4], the “% Inhibition of Aflatoxin at 50 μM” value [1] was 100%, the logP [2] was 3.23 and the Efficacy (Alternaria solani) was 100%. The Efficacy (Leptosphaeria nodorum) was 93%, the Efficacy (Pyrenophora teres) was 100% and the “% Inhibition of fungal growth at 50 μM” value (Aspergillus parasiticus) was 100%. The Efficacy (Septoria tritici) was 100%.

In the case of CCc1nn(C)c(F)c1C(=S)N(C[Si](C)(C)c1ccccc1)C1CC1 [Example 9], the logP [2] is reported as 4.41, the Efficacy (Alternaria solani) is reported as 100% and the Efficacy (Leptosphaeria nodorum) is reported as 100%. The Efficacy (Pyrenophora teres) was 100% and the Efficacy (Septoria tritici) was 93%.

In the case of Cc1nn(C)c(F)c1C(=S)N(C[Si](C)(C)c1ccccc1)C1CC1 [Example 10], the logP [2] is reported as 3.99, the Efficacy (Alternaria solani) is reported as 100% and the Efficacy (Leptosphaeria nodorum) is reported as 100%. For the same compound, the Efficacy (Pyrenophora teres) was 100% and the Efficacy (Septoria tritici) was 100%.

In the case of Cn1nc(C(F)F)c(C(=O)NC[Si](C)(C)c2ccccc2Cl)c1F [Example 15], the “% Inhibition of Aflatoxin at 50 μM” value [1] is reported as 88%, the logP [2] is reported as 3.48 and the Efficacy (Alternaria solani) is reported as 95%. The Efficacy (Pyrenophora teres) was 100%, the “% Inhibition of fungal growth at 50 μM” value (Aspergillus parasiticus) was 76% and the Efficacy (Septoria tritici) was 90%.

Compound Cn1cc(C(=O)N(C[Si](C)(C)c2ccccc2Cl)C2CC2)c(C(F)F)n1 [Example 17] has an Efficacy (Venturia inaequalis) of 98%, a logP [2] of 3.73 and an Efficacy (Alternaria solani) of 94%. The Efficacy (Leptosphaeria nodorum) was 94%, the Efficacy (Pyrenophora teres) was 95% and the Efficacy (Septoria tritici) was 83%.

Cc1nn(C)c(F)c1C(=O)N(C[Si](C)(C)c1ccccc1Cl)C1CC1 [Example 19] gave an Efficacy (Venturia inaequalis) of 99%, a logP [2] of 3.60 and an Efficacy (Botrytis cinerea) of 100%. The Efficacy (Alternaria solani) was 100%, the Efficacy (Leptosphaeria nodorum) was 100% and the Efficacy (Pyrenophora teres) was 100%. The Efficacy (Septoria tritici) was 100%.

CCc1nn(C)c(F)c1C(=O)N(C[Si](C)(C)c1ccccc1Cl)C1CC1 [Example 20] gave an Efficacy (Venturia inaequalis) of 90%, a logP [2] of 4.03 and an Efficacy (Alternaria solani) of 100%. It also gave an Efficacy (Leptosphaeria nodorum) of 100%, an Efficacy (Pyrenophora teres) of 100% and an Efficacy (Septoria tritici) of 92%.

Work on Cc1nc(C(F)F)c(C(=O)N(C[Si](C)(C)c2ccccc2Cl)C2CC2)s1 [Example 21] yielded a logP [2] of 4.32, an Efficacy (Alternaria solani) of 95% and an Efficacy (Leptosphaeria nodorum) of 100%. For the same compound, the Efficacy (Pyrenophora teres) was 100% and the Efficacy (Septoria tritici) was 100%.

Compound Cc1nn(C)c(F)c1C(=O)N(C[Si](C)(C)c1cccc(Cl)c1)C1CC1 [Example 27] has an Efficacy (Venturia inaequalis) of 100%, a logP [2] of 3.67 and an Efficacy (Botrytis cinerea) of 98%. For the same compound, the Efficacy (Alternaria solani) was 94%, the Efficacy (Leptosphaeria nodorum) was 100% and the Efficacy (Pyrenophora teres) was 100%. The Efficacy (Septoria tritici) was 100%.

With CCc1nn(C)c(F)c1C(=O)N(C[Si](C)(C)c1cccc(Cl)c1)C1CC1 [Example 28] the Efficacy (Venturia inaequalis) was 88%, the logP [2] was 4.08 and the Efficacy (Alternaria solani) was 100%. It also gave an Efficacy (Leptosphaeria nodorum) of 100%, an Efficacy (Pyrenophora teres) of 100% and an Efficacy (Septoria tritici) of 100%.

For Cn1cc(C(=O)N(C[Si](C)(C)c2cccc(Cl)c2)C2CC2)c(C(F)F)n1 [Example 30], the logP [2] was 3.80, the Efficacy (Alternaria solani) was 95% and the Efficacy (Leptosphaeria nodorum) was 100%. For the same compound, the Efficacy (Pyrenophora teres) was 100% and the Efficacy (Septoria tritici) was 100%.

With Cc1nc(C(F)F)c(C(=O)N(C[Si](C)(C)c2cccc(Cl)c2)C2CC2)s1 [Example 32] the logP [2] was 4.32, the Efficacy (Leptosphaeria nodorum) was 100% and the Efficacy (Pyrenophora teres) was 95%. It also gave an Efficacy (Septoria tritici) of 100%.

Cc1nn(C)c(F)c1C(=O)N(C[Si](C)(C)c1ccc(Cl)cc1Cl)C1CC1 [Example 39] showed an Efficacy (Venturia inaequalis) of 100%, a logP [2] of 4.30 and an Efficacy (Alternaria solani) of 94%. It also gave an Efficacy (Leptosphaeria nodorum) of 94%, an Efficacy (Pyrenophora teres) of 100% and an Efficacy (Septoria tritici) of 100%.

Compound Cc1cc(C(=O)N(C[Si](C)(C)c2ccc(Cl)cc2Cl)C2CC2)c(C)o1 [Example 40] has a logP [2] of 5.46, an Efficacy (Pyrenophora teres) of 95% and an Efficacy (Septoria tritici) of 100%.

Compound Cn1cc(C(=O)N(C[Si](C)(C)c2ccc(Cl)cc2Cl)C2CC2)c(C(F)F)n1 [Example 41] has an Efficacy (Venturia inaequalis) of 100%, a logP [2] of 4.41 and an Efficacy (Botrytis cinerea) of 98%. For the same compound, the Efficacy (Alternaria solani) was 100%, the Efficacy (Leptosphaeria nodorum) was 95% and the Efficacy (Pyrenophora teres) was 100%. For the same compound, the Efficacy (Septoria tritici) was 100%.

Work on CCc1nn(C)c(F)c1C(=O)N(C[Si](C)(C)c1ccc(Cl)cc1Cl)C1CC1 [Example 42] yielded an Efficacy (Venturia inaequalis) of 99%, a logP [2] of 4.78 and an Efficacy (Botrytis cinerea) of 100%. The Efficacy (Alternaria solani) was 100%, the Efficacy (Leptosphaeria nodorum) was 100% and the Efficacy (Pyrenophora teres) was 100%. For the same compound, the Efficacy (Septoria tritici) was 100%.

Cc1nn(C)c(F)c1C(=O)N(C[Si](C)(C)c1cc(Cl)cc(Cl)c1)C1CC1 [Example 48] showed a logP [2] of 4.34, an Efficacy (Alternaria solani) of 100% and an Efficacy (Leptosphaeria nodorum) of 100%. For the same compound, the Efficacy (Pyrenophora teres) was 100%.

In the case of CCc1nn(C)c(F)c1C(=O)N(C[Si](C)(C)c1cc(Cl)cc(Cl)c1)C1CC1 [Example 49], the Efficacy (Venturia inaequalis) is reported as 96%, the logP [2] is reported as 4.78 and the Efficacy (Alternaria solani) is reported as 94%. For the same compound, the Efficacy (Leptosphaeria nodorum) was 94%, the Efficacy (Pyrenophora teres) was 100% and the Efficacy (Septoria tritici) was 100%.

In the case of Cn1cc(C(=O)N(C[Si](C)(C)c2cc(Cl)cc(Cl)c2)C2CC2)c(C(F)F)n1 [Example 51], the logP [2] is reported as 4.41, the Efficacy (Alternaria solani) is reported as 95% and the Efficacy (Leptosphaeria nodorum) is reported as 80% and 95%. The Efficacy (Pyrenophora teres) was 100% and the Efficacy (Septoria tritici) was 100%.

With Cn1nc(C(F)F)c(C(=O)N(C[Si](C)(C)Cc2ccccc2)C2CC2)c1F [Example 55] the Efficacy (Venturia inaequalis) was 100%, the “% Inhibition of Aflatoxin at 50 μM” value [1] was 100% and the logP [2] was 4.03. For the same compound, the Efficacy (Botrytis cinerea) was 100%, the Efficacy (Alternaria solani) was 100% and the Efficacy (Leptosphaeria nodorum) was 100%. The Efficacy (Pyrenophora teres) was 100%, the “% Inhibition of fungal growth at 50 μM” value (Aspergillus parasiticus) was 99% and the Efficacy (Septoria tritici) was 90%.

With Cn1nc(C(F)F)c(C(=O)N(C[Si](C)(C)c2ccc3ccccc3c2)C2CC2)c1F [Example 74] the “% Inhibition of Aflatoxin at 50 μM” value [1] was 100%, the logP [2] was 4.36 and the Efficacy (Alternaria solani) was 100%. For the same compound, the Efficacy (Pyrenophora teres) was 100% and the “% Inhibition of fungal growth at 50 μM” value (Aspergillus parasiticus) was 100%.

For Cn1nc(C(F)F)c(C(=O)N(C[Si](C)(C)c2ccsc2)C2CC2)c1Cl [Example 75], the “% Inhibition of Aflatoxin at 50 μM” value [1] was 100%, the logP [2] was 3.71 and the Efficacy (Alternaria solani) was 94%. The Efficacy (Pyrenophora teres) was 100% and the “% Inhibition of fungal growth at 50 μM” value (Aspergillus parasiticus) was 100%.

In the case of Cn1nc(C(F)F)c(C(=O)N(C[Si](C)(C)c2ccsc2)C2CC2)c1F [Example 76], the “% Inhibition of Aflatoxin at 50 μM” value [1] is reported as 100%, the logP [2] is reported as 3.55 and the Efficacy (Alternaria solani) is reported as 94%. For the same compound, the Efficacy (Pyrenophora teres) was 100% and the “% Inhibition of fungal growth at 50 μM” value (Aspergillus parasiticus) was 100%.
